# Measured values as given in patent US20250171762A1, “THERAPEUTICAL PEPTIDOMIMETIC” (UNIVERSITA' DEGLI STUDI DI ROMA "LA SAPIENZA", priority 2021, published 2025).
# Entries after “also recorded” stand apart in the source; their conditions may differ. Non-standard residues stand in square brackets, D forms with d. Residues, ends and D or L forms follow the SMILES beside them. No end group written: not given here.
# Columns and labels:
# [1] = system: m·3243A>G mutant cybrids, m·8344A>G mutant cybrids and healthy control cells; assay: Mitochondrial ToxGlo Assay (cyto- and mitotoxicity)
# Experimental: Images show the effect of increasing PMT concentrations on healthy and mutant cells, compared with the effect of a cytotoxic (C1) and a mitotoxic (C2) agent, evaluated using the Mitochondrial ToxGlo™ Assay.
# The X and Y axis show the compounds incubated with cells and the ratio between fluorescent and luminescent signal, respectively. In this assay, fluorescence increase indicates a decrease in cell membrane integrity, and luminescence decrease indicates a decrease in cellular ATP levels. […] The horizontal black line represents fluorescence/luminescence signal ratio of untreated cells. WT: wild type; 3243: cells bearing the mutation m·3243A>G in mt-tRNA^Leu(UUR); L-8344 and H-8344: cells bearing low and high load of mutation m·8344A>G in mt-tRNA^Lys.
# Cybrids were plated on a 96-well plate in normal growth conditions (i.e., glucose medium) and treated with different PMT concentrations. […] Fluorescence and luminescence were measured with a GloMax Multi+Luminometer. […]
# Mitochondrial toxicity exerted by PMT was measured using the Mitochondrial ToxGlo™ Assay (Promega Italia Srl., Milano, Italy) according to the manufacturer's protocol. […] Subsequently, cells were incubated with specific reagents and fluorescence or luminescence were measured with a GloMax Multi+Luminometer (Promega Italia Srl., Milano, Italy).
# [2] = system: cybrids bearing the m·3243A>G mutation in mt-tRNA^Leu(UUR); assay: Fluorescence confocal microscopy of Cy5-linked constructs, uptake and mitochondrial co-localization; assay type: cell-based, human; details: 0.25 μM, 24 hours, Mitotracker Red
# From the text: Top row (constructs): exogenously administered constructs covalently linked to a fluorescent dye (Cy5) are localized within cells.
# Middle row (Mitotracker red): mitochondria within the same cells shown in the top row are highlighted by Mitotracker red, a dye able to link specifically and exclusively to mitochondria.
# The cells used for the experiments are trans-mitochondrial hybrids (hereafter named cybrids) bearing the m·3243A>G mutation in mt-tRNA^Leu(UUR), which is associated with the MELAS syndrome.
# Cells were incubated for 24 hours with 0.25 μM of constructs. Half an hour before imaging, cells were stained with Mitotracker Red. Finally, fluorescence signals were detected with a laser scanning confocal microscope. PCC: Pearson's Correlation Coefficient (mean±SEM of six images).
# Constructs made of compounds listed in Table 1 linked to the Cy5 fluorophore via maleimide cross-linker, were administered to sub-confluent cybrid cell cultures at 0.25 μM in glucose medium. […] The fluorescence images were analyzed with the ImageJ software (14, https://imagej.nih.gov/ij/, 1997-2018) to determine the Pearson's correlation coefficient.
# The uptake and localization of Cy5-conjugated constructs in cybrids was assessed by flow cytometry, confocal microscopy, and immunoblot analysis on isolated mitochondria (FIG. 1). […]
# [3] = Plasma stability: incubation in human plasma, UPLC-MS quantification; assay type: in vitro ADME; details: for plasma stability compared with another peptide: human plasma, FIG. 4; for degradation in human plasma: no time stated
# Experimental: Panel B. Time course decay of β32_33, PMT, PMT-8a and PMT-8b incubated up to 72 h with human plasma from four healthy subjects. […] The Y axis indicates the signal intensity of the four peptides. Samples of plasma were obtained from healthy volunteers and immediately used for the analysis. Either β32_33 peptide or PMT for the experiment in panel A, and β32_33 peptide, PMT, PMT-8a or PMT-8b for the experiment in panel B, was incubated in plasma at a final concentration of 0.2 mM, at 37° C., up to 3 h (A) or 72 h (B). At the indicated time points, i.e., T0 and 3 h (A) or T0, 1.5, 3, 6 and 72 h (B), aliquots of 200 μL were treated with 3 volumes of acetonitrile containing 1% formic acid and extracted by a solid phase extraction system to remove proteins and phospholipids. Samples were dried under vacuum, resuspended in 100 μL of 0.1% formic acid containing 5% acetonitrile, and analyzed with a Water Acquity H-Class UPLC system equipped with a single-quadruple mass detector with electrospray ionization source. Samples were separated onto a reverse phase C18 column by performing a gradient with two mobile phases consisting of 0.1% formic acid in water and 0.1% formic acid in acetonitrile at a flow rate of 0.5 mL/min. Quantification was performed by Selected lon Recording (SIR): at m/z=917.88, corresponding to the [M+2 H]^2+ion obtained from either β32_33 or PMT; at m/z=961.42, corresponding to the [M+H]^+ion obtained from PMT-8a; and at m/z=869.48, corresponding to the [M+H]^+ion obtained from PMT-8b.
# In order to evaluate whether compounds (βp and d-βp) are stable in blood or hydrolyzed by plasma peptidases, we set up a chromatographic assay to evaluate compound concentration after incubation in human plasma.
# Blood was drawn by venipuncture in vacutainer containing EDTA as an anticoagulant.
# Two different samples from healthy volunteers were used. Plasma was separated by centrifugation and immediately used for the experiments. Each compound was dissolved in 500 uL plasma at a final concentration of 0.2 mM, and split into two aliquots, one of which was immediately analyzed to assess the basal compound level; the other was incubated at 37° C. for 3 hours under gentle shaking. In order to perform chromatographic analysis the samples were treated with 3 volumes of acetonitrile containing 1% formic acid, and then extracted by using the Ostro™ pass-through sample preparation system to remove proteins and phospholipids. Samples were dried under vacuum and then resuspended in 100 uL of 0.1% formic acid containing 5% acetonitrile, then directly injected onto the chromatographic column.
# Chromatographic analyses were performed on a Water Acquity H-Class UPLC system (Waters, Milford, MA, USA), including a quaternary solvent manager (QSM), a sample manager with a flow through needle system (FTN), a photodiode array detector (PDA) and a single-quadruple mass detector with electrospray ionization source (ACQUITY QDa). Analyses were performed on a reverse phase C18 column (75 mm×3.2 mm i.d., 2.5 μm particle size). The mobile phase was solvent A, 0.1% formic acid in water, and solvent B, 0.1% formic acid in acetonitrile. The flow rate was 0.5 mL/min, the column temperature was set at 25° C. and the elution was performed by linearly increasing the concentration of solvent B up to 70% in 7 minutes. Mass spectrometric detection was performed in the positive electrospray ionization mode, using nitrogen as the nebulizer gas. Analyses were performed in the Total lon Current (TIC) mode with a mass range of 100-1200 m/z. The capillary voltage was 0.8 kV, cone voltage 8 V, ion source temperature 120° C. and probe temperature 600° C. Quantification of each compound was performed by Selected lon Recording (SIR) at m/z 917.88, corresponding to the […]
# [4] = system: m·3243A>G mt-tRNA^Leu(UUR) mutant cybrids; assay: Cell viability, Trypan blue dye exclusion, galactose vs glucose medium; assay type: cell-based, human; details: 5 μM, galactose medium, 24 hours
# Experimental: For viability assessment, cells were plated in either glucose or galactose medium. The reason for this is that a viability phenotype can be appreciated in cells growing on galactose, which forces cells to rely on mitochondrial respiration, but not in cells growing on glucose. After 24 hours incubation, the number of viable cells in the galactose medium was normalized to the number of viable cells in glucose at the same time point, which represents the normal growth condition. Data are compared with the value of mutant cells incubated with vehicle only. Mean±SEM of at least three independent experiments is shown.
# For viability assessment, cells were plated in either glucose or galactose medium. The reason for this is that a viability phenotype can be appreciated in cells growing on galactose, which forces cells to rely on mitochondrial respiration, but not in cells growing on glucose. After 24 hours incubation the number of viable cells in galactose medium was normalized to the number of viable cells in glucose (that represents the normal growth condition) at the same time point. Data are compared with the value of mutant cells incubated with vehicle only. Means±SEM of at least two independent experiments are shown.
# Previously established osteosarcoma derived (143B.TK-) cybrid cell lines from patients, which bear either the m·3243A>G mutation in mt-tRNA^Leu(UUR) or the m·8344A>G mutation in mt-tRNA^Lys, and controls were used (generous gift from Dr Valeria Tiranti and Dr Valerio Carelli).
# Cybrid cells were cultured in Dulbecco's modified Eagle's medium (DMEM), supplemented with 4.5 g/l d-glucose, 10% foetal bovine serum (FBS), 2 mM I-glutamine, 50 μg/ML uridine, 100 U/mL penicillin, and […] (referred to as glucose medium) in a humidified atmosphere of 95% air and 5% CO2 at 37° C. For cell viability experiments, cells were grown either in glucose medium or in glucose-free DMEM, supplemented with 5 mM galactose, […] sodium pyruvate, and 10% FBS (referred to as galactose medium). The reason for using the latter medium is that a pathological phenotype can be appreciated in cells growing on galactose, which forces cells to rely on mitochondrial respiration, but not in cells growing on glucose.
# […] Cells were switched in glucose or galactose and after 24 hours cell viability was measured by the Trypan blue dye exclusion assay. Cells were harvested with 0.25% trypsin and 0.2% EDTA, washed, suspended in PBS in the presence of Trypan blue solution (Sigma-Aldrich) at 1:1 ratio and counted using a hemocytometer. The number of viable cells in galactose medium was expressed as a percentage of the number of cells in glucose medium.
# (§1) To evaluate the effect of the compounds on viability, cybrids were grown in glucose-free medium supplemented with galactose (galactose medium), a condition that both forces cells to rely on the mt respiratory chain for ATP synthesis and causes a significant growth reduction in the presence of mutations.
# as §1, with “PMT and M-PMT” for “the compounds”
"remaining at 72 h, 0.2 mM ([3]; human, human plasma from healthy volunteers, second experiment, plasma of four healthy volunteers, 72 h, read-out: peptide present after incubation in plasma) [%]",Compound,"effect on fluorescence and luminescence (positive controls) ([1]; 400 μg/ml digitonin (C1) or 100 μl sodium azide (C2), three hours)","cyto- and mito-toxicity ([1]; 5, 10, 20 μM (up to 20 μM), mutant and wild-type cells)",penetration of cell membranes and co-localization with mitochondria [2],plasma stability compared with another peptide [3],degradation in human plasma [3],"detectable degradation in plasma ([3]; second experiment, plasma of four healthy volunteers, up to 72 h)",viability of mutant cybrids vs non treated mutant cells [4]
–,"[N-]=[N+]=[N-] [sodium azide, reference compound]",a decrease in luminescence and has no effect on fluorescence,–,–,–,–,–,–
–,"d(K)d(K)d(S)d(F)d(L)d(S)d(P)d(R) ([dK][dK][dS][dF][dL][dS][dP][dR]) [PMT-8a, PMT fragment comprising PMT residues 1-8]",–,neither cytotoxic nor mitotoxic,Penetrate Cell Membranes and Co-Localize with Mitochondria,even more stable than the full-length 16-residue long PMT; also recorded: slower degradation than the β32_33 peptide,does not undergo degradation at all,did not undergo detectable degradation,–
80,"CC[C@@H](C)[C@@H](NC(=O)[C@@H](CC(C)C)NC(=O)[C@@H](C)NC(=O)[C@H](NC(=O)[C@@H](CCCNC(=N)N)NC(=O)[C@H]1CCCN1C(=O)[C@@H](CO)NC(=O)[C@H](N)CC(C)C)[C@H](C)O)C(=O)O [PMT-8b, d(L)d(S)d(P)d(R)d(T)d(A)d(L)d(I)] (H-[dL][dS][dP][dR][dT][dA][dL][dI]-OH; N-terminus and C-terminus assumed)",–,–,Penetrate Cell Membranes and Co-Localize with Mitochondria,even more stable than the full-length 16-residue long PMT; also recorded: slower degradation than the β32_33 peptide,does not undergo degradation at all,–,significantly improved
